Counter-ions that a name gives are not always drawn. Like-named read-outs stand apart in the source and are kept apart here.
Experiments:
Type in all cases: biochemical
human α-thrombin = human α-thrombin (Homo sapiens (Human), UniProt P00734); experiment: Enzymatic assay for thrombin (Boc-VPR-AMC substrate)
MASP-2 (CCP1-CCP2-SP) = MASP-2 (CCP1-CCP2-SP) (Homo sapiens (Human), UniProt O00187); experiment: biochemical; settings: for MASP-2 vs. thrombin selectivity: selectivity for MASP-2 inhibition versus thrombin
Sequence of MASP-2 (CCP1-CCP2-SP) (O00187 445-686): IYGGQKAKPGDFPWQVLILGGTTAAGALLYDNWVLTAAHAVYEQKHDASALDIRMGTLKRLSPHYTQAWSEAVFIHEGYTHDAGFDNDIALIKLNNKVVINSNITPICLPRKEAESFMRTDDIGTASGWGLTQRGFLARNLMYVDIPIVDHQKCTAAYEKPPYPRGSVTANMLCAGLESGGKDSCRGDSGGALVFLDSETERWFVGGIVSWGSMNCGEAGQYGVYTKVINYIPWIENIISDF

mMASP-2 = mMASP-2 (Mus musculus (Mouse), UniProt Q91WP0); experiment: Enzymatic inhibition of mMASP-2
Sequence of mMASP-2 (Q91WP0 20-685): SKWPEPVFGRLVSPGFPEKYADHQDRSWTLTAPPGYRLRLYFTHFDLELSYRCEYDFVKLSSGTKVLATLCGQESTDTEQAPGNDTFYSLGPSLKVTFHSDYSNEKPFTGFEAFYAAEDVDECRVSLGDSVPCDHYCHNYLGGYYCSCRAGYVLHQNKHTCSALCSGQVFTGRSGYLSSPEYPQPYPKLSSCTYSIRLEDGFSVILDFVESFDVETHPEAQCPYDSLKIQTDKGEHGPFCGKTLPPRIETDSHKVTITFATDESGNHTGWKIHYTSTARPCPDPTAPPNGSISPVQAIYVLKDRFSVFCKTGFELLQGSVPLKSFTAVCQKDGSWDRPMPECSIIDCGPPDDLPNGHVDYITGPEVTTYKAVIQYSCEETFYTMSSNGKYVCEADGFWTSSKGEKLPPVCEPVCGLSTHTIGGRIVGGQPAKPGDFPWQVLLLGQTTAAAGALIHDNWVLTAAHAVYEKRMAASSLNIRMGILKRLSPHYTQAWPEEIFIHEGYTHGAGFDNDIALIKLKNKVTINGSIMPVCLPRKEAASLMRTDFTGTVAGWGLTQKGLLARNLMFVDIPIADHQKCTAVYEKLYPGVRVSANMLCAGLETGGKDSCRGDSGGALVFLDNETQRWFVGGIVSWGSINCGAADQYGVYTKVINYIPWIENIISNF

Row | Structure (SMILES) | Ki (human α-thrombin; Thrombin Ki (μM)) | Ki (MASP-2 (CCP1-CCP2-SP); read-out: MASP-2 Ki) | MASP-2 vs. thrombin selectivity (MASP-2 (CCP1-CCP2-SP)) | Ki (mMASP-2; read-out: mMASP-2 Ki) | Ki (human α-thrombin; read-out: Thrombin Ki) | Ki (MASP-2 (CCP1-CCP2-SP)) | Ki (mMASP-2)
1 | Cc1cccc([C@H]2CCN[C@@H](C(=O)N[C@@H](C)C(=O)NCc3ccc(C(=N)N)cc3)C2)c1 [compound 1231, (2R,4S)—N—((S)-1-((4-Carbamimidoylbenzyl)amino)-1-oxopropan-2-yl)-4-(m-tolyl)piperidine-2-carboxamide] | 2.5 to 10 µM | < 500 nM | **** (≥100-fold) | < 500 nM | – | – | –
2 | C[C@H](NC(=O)[C@H]1C[C@@H](Cc2ccccc2)CN1)C(=O)NCc1ccc(C(=N)N)cc1 [compound 1284, (2R,4R)-4-Benzyl-N-((S)-1-((4-carbamimidoylbenzyl)amino)-1-oxopropan-2-yl)pyrrolidine-2-carboxamide] | – | < 500 nM | * (≥1.0 to <5.0-fold) | < 500 nM | < 0.5 µM | – | –
3 | CC(=O)Nc1ccc(CCN[C@H](CCc2ccccc2)C(=O)N[C@@H](C)C(=O)NCc2ccc(N)nc2C)cc1 [compound 1368, (R)-2-((4-Acetamidophenethyl)amino)-N-((S)-1-(((6-amino-2-methylpyridin-3-yl)methyl)amino)-1-oxopropan-2-yl)-4-phenylbutanamide Dihydrochloride] | – | – | ** (≥5.0 to <25-fold) | 10000 to 25000 nM | > 25 µM | 500 to 2500 nM | –
4 | CC[C@H](NC(=O)[C@H](N)CCc1ccccc1)C(=O)NCc1ccc(C(=N)N)cc1 [compound 1289, (R)-2-Amino-N—((S)-1-((4-carbamimidoylbenzyl)amino)-1-oxobutan-2-yl)-4-phenylbutanamide] | – | < 500 nM | −− (<1.0-fold) | < 500 nM | < 0.5 µM | – | –
5 | C[C@H](NC(=O)[C@H]1C[C@H](c2ccccc2)CN1)C(=O)NCc1cc(O)cc(Cl)c1 [compound 1364, (2R,4R)—N—((S)-1-((3-Chloro-5-hydroxybenzyl)amino)-1-oxopropan-2-yl)-4-phenylpyrrolidine-2-carboxamide Hydrochloride] | – | – | – | 10000 to 25000 nM | > 25 µM | 500 to 2500 nM | –
6 | Cc1nc(N)ccc1CNC(=O)[C@H](C)NC(=O)[C@H]1C[C@H](Cc2ccc(-c3cccnc3)cc2)CN1 [compound 1357, (2R,4S)—N—((S)-1-(((6-Amino-2-methylpyridin-3-yl)methyl)amino)-1-oxopropan-2-yl)-4-(4-(pyridin-3-yl)benzyl)pyrrolidine-2-carboxamide Di-trifluoroacetate salt] | – | < 500 nM | **** (≥100-fold) | < 500 nM | > 25 µM | – | –
7 | C[C@H](NC(=O)[C@H](N)CCc1ccccc1)C(=O)NCc1cnc(N)c(F)c1 [compound 1267, (R)-2-amino-N—((S)-1-(((6-amino-5-fluoropyridin-3-yl)methyl)amino)-1-oxopropan-2-yl)-4-phenylbutanamide] | – | – | – | > 25000 nM | > 25 µM | 2500 to 10000 nM | –
8 | Cc1nc(N)ccc1CNC(=O)[C@H](C)NC(=O)[C@H]1C[C@@H](CCc2ccccc2)CN1 [compound 1322, (2R,4R)—N—((S)-1-(((6-Amino-2-methylpyridin-3-yl)methyl)amino)-1-oxopropan-2-yl)-4-phenethylpyrrolidine-2-carboxamide Dihydrochloride] | 10 to 25 µM | < 500 nM | *** (≥25 to <100-fold) | 500 to 2500 nM | – | – | –
9 | C[C@H](NC(=O)[C@H]1C[C@@H](c2ccccc2)CCN1)C(=O)NCc1cc(Cl)ccc1-n1cnnn1 [compound 1426, (2R,4S)—N—((S)-1-((5-Chloro-2-(1H-tetrazol-1-yl)benzyl)amino)-1-oxopropan-2-yl)-4-phenylpiperidine-2-carboxamide Trifluoroacetate] | 0.5 to 2.5 µM | < 500 nM | *** (≥25 to <100-fold) | 500 to 2500 nM | – | – | –
10 | Cc1ccc([C@H]2CCN[C@@H](C(=O)N[C@@H](C)C(=O)NCc3ccc(C(=N)N)cc3)C2)cc1 [compound 1249, (2R,4S)—N—((S)-1-((4-Carbamimidoylbenzyl)amino)-1-oxopropan-2-yl)-4-(p-tolyl)piperidine-2-carboxamide] | 10 to 25 µM | < 500 nM | **** (≥100-fold) | < 500 nM | – | – | –
11 | CCCOC(=O)NC(=N)c1ccc(CNC(=O)[C@H](C)NC(=O)[C@H]2C[C@H](c3ccccc3)CN2)cc1 [compound 1263, Propyl (imino(4-(((S)-2-((2R,4R)-4-phenylpyrrolidine-2-carboxamido)propanamido)methyl)phenyl)methyl)carbamate] | – | – | – | – | > 25 µM | 2500 to 10000 nM | 2500 to 10000 nM
12 | C[C@H](NC(=O)[C@@H](CCc1ccccc1)NCc1ccc(OCCO)cc1)C(=O)NCc1ccc(C(=N)N)cc1 [compound 1236, (R)—N—((S)-1-((4-Carbamimidoylbenzyl)amino)-1-oxopropan-2-yl)-2-((4-(2-hydroxyethoxy)benzyl)amino)-4-phenylbutanamide] | – | < 500 nM | * (≥1.0 to <5.0-fold) | < 500 nM | < 0.5 µM | – | –
13 | Cc1nc(N)ccc1CNC(=O)[C@H](C)NC(=O)[C@H]1C[C@H](Cc2cc(Br)c(Cl)s2)CN1 [compound 1483, (2R,4R)—N—((S)-1-(((6-Amino-2-methylpyridin-3-yl)methyl)amino)-1-oxopropan-2-yl)-4-((4-bromo-5-chlorothiophen-2-yl)methyl)pyrrolidine-2-carboxamide Di-trifluoroacetate salt] | 10 to 25 µM | < 500 nM | **** (≥100-fold) | < 500 nM | – | – | –
14 | CCN1CC[C@H](c2ccccc2)C[C@@H]1C(=O)N[C@@H](C)C(=O)NCc1ccc(N)nc1C [compound 1496, (2R,4S)—N—((S)-1-(((6-Amino-2-methylpyridin-3-yl)methyl)amino)-1-oxopropan-2-yl)-1-ethyl-4-phenylpiperidine-2-carboxamide] | – | < 500 nM | – | 500 to 2500 nM | > 25 µM | – | –
15 | C[C@H](NC(=O)[C@H]1C[C@@H](c2ccccc2)CCN1)C(=O)NCc1ccccc1 [compound 1271, (2R,4S)—N—((S)-1-(benzylamino)-1-oxopropan-2-yl)-4-phenylpiperidine-2-carboxamide] | – | – | – | > 25000 nM | > 25 µM | 2500 to 10000 nM | –
16 | Cc1nc(N)ccc1CNC(=O)[C@H](C)NC(=O)[C@H]1C[C@H](Cc2nc3cc(Cl)ccc3s2)CN1 [compound 1460, (2R,4R)—N—((S)-1-(((6-Amino-2-methylpyridin-3-yl)methyl)amino)-1-oxopropan-2-yl)-4-((5-chlorobenzo[d]thiazol-2-yl)methyl)pyrrolidine-2-carboxamide Di-trifluoroacetate salt] | – | < 500 nM | **** (≥100-fold) | < 500 nM | > 25 µM | – | –
17 | Cc1nc(N)ccc1CNC(=O)[C@H](C)NC(=O)[C@H]1C[C@H](Cc2ccc(-c3ccc(F)cc3CN)cc2)CN1 [compound 1403, (2R,4S)—N—((S)-1-(((6-Amino-2-methylpyridin-3-yl)methyl)amino)-1-oxopropan-2-yl)-4-((2′-(aminomethyl)-4′-fluoro-[1,1′-biphenyl]-4-yl)methyl)pyrrolidine-2-carboxamide] | – | < 500 nM | – | 500 to 2500 nM | > 25 µM | – | –

Reference: patent publication US11584714B2 (priority 2018, dated 2023)
